Laboratory results reported in ChEMBL document CHEMBL1145873, “Acylsulfonamide-containing PTP1B inhibitors designed to mimic an enzyme-bound water of hydration” (Bioorg Med Chem Lett, 2003).

Each molecule was assayed against T1, Tyrosine-protein phosphatase non-receptor type 1 (Homo sapiens, UniProt P18031) (assay: Binding affinity towards recombinant human Protein-tyrosine phosphatase 1B was determined).
T1 sequence (P18031 whole entry): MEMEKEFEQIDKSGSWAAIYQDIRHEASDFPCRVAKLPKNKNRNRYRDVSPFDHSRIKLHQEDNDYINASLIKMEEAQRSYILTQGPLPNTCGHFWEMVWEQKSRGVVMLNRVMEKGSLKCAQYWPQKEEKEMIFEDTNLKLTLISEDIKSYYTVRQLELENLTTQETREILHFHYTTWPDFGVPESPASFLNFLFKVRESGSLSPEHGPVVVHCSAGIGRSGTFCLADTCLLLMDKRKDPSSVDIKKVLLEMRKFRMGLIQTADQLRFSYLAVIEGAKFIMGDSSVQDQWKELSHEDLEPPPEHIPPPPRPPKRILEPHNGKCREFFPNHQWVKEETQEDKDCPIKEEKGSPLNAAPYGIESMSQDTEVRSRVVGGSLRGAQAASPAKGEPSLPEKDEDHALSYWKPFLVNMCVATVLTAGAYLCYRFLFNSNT
Work on `CS(=O)(=O)NC(=O)c1ccc2cc(C(F)(F)P(=O)(O)O)ccc2c1` yielded a Ki of 17 µM.

The molecules below were run against T1, Tyrosine-protein phosphatase non-receptor type 1 (assay: Inhibitory concentration towards recombinant human Protein-tyrosine phosphatase 1B was determined).
For `C[C@@H]1CCC[C@H](C)N1NC(=O)c1ccc(Cl)c(S(=O)(=O)NC(=O)c2ccc3cc(C(F)(F)P(=O)(O)O)ccc3c2)c1`, the IC50 was 19 µM. `O=C(NS(=O)(=O)Cc1ccccc1)c1ccc2cc(C(F)(F)P(=O)(O)O)ccc2c1` gave an IC50 of 24 µM. `O=C(NS(=O)(=O)c1cc(C2(O)NC(=O)c3ccccc32)ccc1Cl)c1ccc2cc(C(F)(F)P(=O)(O)O)ccc2c1` (stereo not given) was tested, and the IC50 was 25 µM. Work on `O=C(NS(=O)(=O)c1ccccc1)c1ccc2cc(C(F)(F)P(=O)(O)O)ccc2c1` yielded an IC50 of 30 µM. For `CS(=O)(=O)NC(=O)c1ccc2cc(C(F)(F)P(=O)(O)O)ccc2c1`, the IC50 was 41 µM. In the case of `CCN1CCCC1CNC(=O)c1cc(S(=O)(=O)NC(=O)c2ccc3cc(C(F)(F)P(=O)(O)O)ccc3c2)ccc1OC` (stereo not given), the IC50 is reported as 46 µM. Work on `CC1Cc2ccccc2N1NC(=O)c1ccc(Cl)c(S(=O)(=O)NC(=O)c2ccc3cc(C(F)(F)P(=O)(O)O)ccc3c2)c1` (stereo not given) yielded an IC50 of 20 µM. Molecule `CCCCCCCCCCCCCCCCOc1ccc(S(=O)(=O)NC(=O)c2ccc3cc(C(F)(F)P(=O)(O)O)ccc3c2)cc1[N+](=O)[O-]` has an IC50 of 0.35 µM. `CCCCCCCCCC(=O)Nc1ccc(S(=O)(=O)NC(=O)c2ccc3cc(C(F)(F)P(=O)(O)O)ccc3c2)cc1` was tested, and the IC50 was 18 µM.
